Experiments:
androgenic alopecia = settings: 1 milligram per day, 24 months, 100 men; cited from earlier work
5α-Reductase Type 2 = target: T1, 5α-Reductase Type 2 (Homo sapiens, UniProt P31213); assay: inhibition of 5α-Reductase Type 2 enzyme (Inhibition Experiments 1 and 2); format: biochemical
T1 sequence (P31213 1-254): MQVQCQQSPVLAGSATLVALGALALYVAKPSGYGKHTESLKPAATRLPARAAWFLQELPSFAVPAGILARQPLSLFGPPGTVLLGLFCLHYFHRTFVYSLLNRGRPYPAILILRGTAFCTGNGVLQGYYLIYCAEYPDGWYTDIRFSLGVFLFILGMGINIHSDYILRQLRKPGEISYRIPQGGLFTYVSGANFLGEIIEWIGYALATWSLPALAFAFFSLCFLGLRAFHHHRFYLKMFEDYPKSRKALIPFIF
Source text: (§1) The different free fatty acids of medium and long saturated chains and long unsaturated chains are shown, together with esterified fatty acids, oxidized fatty acids, fatty alcohols, phytosterols, and other components. The magnitude of the activity is designated by “none,” “moderate” or “very active” (FIG. 3). The various constituents shown in the table of FIG. 2 are also shown and listed as free fatty acid molecules with: a) medium, saturated chains, b) long, saturated chains, and c) long unsaturated chains. There are esterified fatty acids, oxidized fatty acids, and fatty alcohols. These tables support other evidence that the five active free fatty acids for prostate and hair health are lauric, myristic, oleic, linoleic and linolenic free fatty acids.
Data are shown in the graphs and bar charts of FIGS. 5 and 6 where data are reported as the effectiveness to inhibit enzyme activity (IC50). […]
Inhibition Experiment 2 shown in FIG. 6 determined the possible impact of Permixon® product matrix (PEG) on an in vitro assay and the pegylated and conventional ultra-high purity supercritical CO2 extract having the PEG matrix (U4602-PEG) was compared to the commercially available Permixon® and the conventional unpegylated product (U4602) for their ability to inhibit the 5α-Reductase 2 enzyme. […]

hair growth = settings: normal shaved mice, after about 20 days; cited from earlier work
5α-Reductase Type 1 = target: T2, 5α-Reductase Type 1 (Homo sapiens, UniProt P18405); assay: inhibition of 5α-Reductase Type 1 enzyme; format: biochemical
T2 sequence (P18405 1-259): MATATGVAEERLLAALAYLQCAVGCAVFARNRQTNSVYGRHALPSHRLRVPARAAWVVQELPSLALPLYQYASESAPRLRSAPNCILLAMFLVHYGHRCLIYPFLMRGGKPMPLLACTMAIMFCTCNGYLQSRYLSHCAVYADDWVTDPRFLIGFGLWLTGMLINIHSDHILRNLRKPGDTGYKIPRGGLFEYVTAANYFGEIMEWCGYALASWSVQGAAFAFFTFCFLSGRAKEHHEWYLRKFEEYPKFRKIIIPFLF
Source text: as §1
Reference is now made to FIGS. 7B and 7C showing the use of a supercritical CO2 extracted LSESr and Permixon®.

SMILES	men who noted an improvement (androgenic alopecia)	effectiveness for 5α-Reductase-2 (in words) (5α-Reductase Type 2)	hair growth (hair growth)	effectiveness for 5α-Reductase-1 (in words) (5α-Reductase Type 1)
CC(C)(C)NC(=O)[C@H]1CC[C@H]2[C@@H]3CC[C@H]4NC(=O)C=C[C@]4(C)[C@H]3CC[C@]12C [finasteride]	68%			
CCCCC/C=C\C/C=C\CCCCCCCC(=O)O [linoleic acid]		beneficial for both	about 100%	
CCCCCCCC/C=C\CCCCCCCC(=O)O [oleic acid]		not as much		especially effective

From patent US12648983B2 (U.S. NUTRACEUTICALS, INC., priority 2021, dated 2026)
